Reference: BindingDB's records for doi:10.1016/j.bmcl.2003.10.070 (Roche Palo Alto, 2004)

Target: Prostacyclin receptor (Rattus norvegicus) (UniProt P43253)
Assay: Binding affinity towards prostacyclin receptor on rat NG-108-15 neuroblastoma cells, using [3H]iloprost as a radioligand

Chain of Prostacyclin receptor (Rattus norvegicus) (P43253 whole entry, looked up): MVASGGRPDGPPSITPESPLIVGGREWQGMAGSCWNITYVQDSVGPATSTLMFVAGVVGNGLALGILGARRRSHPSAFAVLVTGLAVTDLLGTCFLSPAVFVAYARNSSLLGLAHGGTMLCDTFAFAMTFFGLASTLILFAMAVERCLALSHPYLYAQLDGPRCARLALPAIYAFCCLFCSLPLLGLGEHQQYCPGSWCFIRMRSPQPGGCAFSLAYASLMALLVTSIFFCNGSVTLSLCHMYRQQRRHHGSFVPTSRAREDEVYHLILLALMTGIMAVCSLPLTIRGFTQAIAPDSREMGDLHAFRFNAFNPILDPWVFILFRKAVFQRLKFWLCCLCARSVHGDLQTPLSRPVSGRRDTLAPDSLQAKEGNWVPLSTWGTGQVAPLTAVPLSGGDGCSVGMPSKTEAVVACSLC

Ki [nM] | SMILES
3160 | c1ccc2c(c1)sc1ccc(NC3=NCCN3)cc12
50 | CCOC(=O)c1ccc(Sc2ccc(NC3=NCCN3)cc2)cc1
158 | COc1ccc(S(=O)(=O)c2ccc(NC3=NCCN3)cc2)cc1
50 | FC(F)(F)c1ccc(Sc2ccc(NC3=NCCN3)cc2)cc1
3980 | COc1ccccc1Sc1ccc(NC2=NCCN2)cc1
10000 | COc1ccc(Sc2ccc(CN3CCCC3)cc2)cc1
501 | COc1ccc(N(C)c2ccc(NC3=NCCN3)cc2)cc1
100 | Cc1ccc(Sc2ccc(NC3=NCCN3)cc2)cc1
398 | COc1cccc(Sc2ccc(NC3=NCCN3)cc2)c1
631 | Clc1cccc(Cl)c1Sc1ccc(NC2=NCCN2)cc1
63 | COc1ccc(Sc2ccc(NC3=NC(C)CN3)cc2)cc1 (configuration not stated)
79 | Clc1ccc(Sc2ccc(NC3=NCCN3)cc2)cc1
1260 | COc1ccc(Sc2ccc(NC3=NCCCCN3)cc2)cc1
631 | COc1ccc(Sc2ccc(NC3=NC(C)(C)CN3)cc2)cc1
1000 | COc1ccc(-c2ccc(NC3=NCCN3)cc2)cc1
794 | c1ccc(Sc2ccc(NC3=NCCN3)cc2)cc1
316 | COc1ccc(C(=O)c2ccc(NC3=NCCN3)cc2)cc1
79 | CS(=O)(=O)Nc1ccc(Sc2ccc(NC3=NCCN3)cc2)cc1
316 | O=[N+]([O-])c1ccc(Sc2ccc(NC3=NCCN3)cc2)cc1

Ki [nM] | SMILES
5010 | COc1ccc(Sc2ccc(CC3=NCCN3)cc2)cc1
631 | CC/N=C(\N)Nc1ccc(Sc2ccc(Cl)cc2)cc1
501 | Clc1ccc(Sc2ccc(CNC3=NCCN3)cc2)cc1
3160 | c1cc(SC2CCCCC2)ccc1NC1=NCCN1
1260 | COc1ccc(Sc2ccc(C(=N)N)cc2)cc1
398 | CC(C)(C)c1ccc(Sc2ccc(NC3=NCCN3)cc2)cc1
32 | CC(C)Oc1ccc(Sc2ccc(NC3=NCCN3)cc2)cc1
40 | CCOc1ccc(Sc2ccc(NC3=NCCN3)cc2)cc1
316 | COc1ccc(Sc2ccc(C3=NCCN3)cc2)cc1
631 | c1cc(Sc2ccc3c(c2)OCCO3)ccc1NC1=NCCN1
3980 | COc1ccc(Sc2cccc(NC3=NCCN3)c2)cc1
794 | COc1ccc(OC)c(Sc2ccc(NC3=NCCN3)cc2)c1
25 | COc1ccc(Cc2ccc(NC3=NCCN3)cc2)cc1
251 | CC(C)c1ccc(Sc2ccc(NC3=NCCN3)cc2)cc1
251 | CC/N=C(\N)Nc1ccc(Sc2ccc(OC)cc2)cc1
158 | COc1ccc(Oc2ccc(NC3=NCCN3)cc2)cc1
79 | COc1ccc(Sc2ccc(NC3=NCCCN3)cc2)cc1
631 | COc1ccc(Sc2ccccc2NC2=NCCN2)cc1
